Calls of active or inactive are those of the source.
Legend:
Type in all cases: functional, organism-based
Enterococcus faecium = test: Antimicrobial activity against vancomycin-resistant Enterococcus faecium at < 10 ug/ml
Staphylococcus aureus [1] = test: Antimicrobial activity against methicillin-resistant Staphylococcus aureus at < 10 ug/ml
Staphylococcus aureus [2] = test: Antimicrobial activity against Staphylococcus aureus at < 10 ug/ml
Escherichia coli = test: Antimicrobial activity against Escherichia coli at < 10 ug/ml
Enterococcus faecalis = test: Antimicrobial activity against Enterococcus faecalis at < 10 ug/ml
Pseudomonas aeruginosa = test: Antimicrobial activity against Pseudomonas aeruginosa at < 10 ug/ml

Measured: Activity

C=C1C(=O)OCC1C/C=C(\C)CC(=O)C=C(C)C (stereo unspecified)
inactive: all assays above
